Measurements reported in article PMC7562955 (Nature Communications, 2020).

Columns and labels:
TLR7 [1] = biological target: T1, TLR7 (Homo sapiens, UniProt Q9NYK1); assay: TLR7 inhibition assay in primary human PBMCs (R848-induced IFN-α, ELISA); format: cell-based; set-up: Human Peripheral Blood Mononuclear cells (hPBMCs) were collected from healthy adult donors; endogenous in cells; host or cells: primary human PBMCs (plasmacytoid DCs produce the IFN-α); conditions: for R848-induced IFN-α production: 2.5 μM; for Mean IFN-α / IFN-α: antagonist 2.5 μM; for Mean IFN-α: n = 3; for IFN-α: single replicate
T1 sequence (Q9NYK1 27-1049): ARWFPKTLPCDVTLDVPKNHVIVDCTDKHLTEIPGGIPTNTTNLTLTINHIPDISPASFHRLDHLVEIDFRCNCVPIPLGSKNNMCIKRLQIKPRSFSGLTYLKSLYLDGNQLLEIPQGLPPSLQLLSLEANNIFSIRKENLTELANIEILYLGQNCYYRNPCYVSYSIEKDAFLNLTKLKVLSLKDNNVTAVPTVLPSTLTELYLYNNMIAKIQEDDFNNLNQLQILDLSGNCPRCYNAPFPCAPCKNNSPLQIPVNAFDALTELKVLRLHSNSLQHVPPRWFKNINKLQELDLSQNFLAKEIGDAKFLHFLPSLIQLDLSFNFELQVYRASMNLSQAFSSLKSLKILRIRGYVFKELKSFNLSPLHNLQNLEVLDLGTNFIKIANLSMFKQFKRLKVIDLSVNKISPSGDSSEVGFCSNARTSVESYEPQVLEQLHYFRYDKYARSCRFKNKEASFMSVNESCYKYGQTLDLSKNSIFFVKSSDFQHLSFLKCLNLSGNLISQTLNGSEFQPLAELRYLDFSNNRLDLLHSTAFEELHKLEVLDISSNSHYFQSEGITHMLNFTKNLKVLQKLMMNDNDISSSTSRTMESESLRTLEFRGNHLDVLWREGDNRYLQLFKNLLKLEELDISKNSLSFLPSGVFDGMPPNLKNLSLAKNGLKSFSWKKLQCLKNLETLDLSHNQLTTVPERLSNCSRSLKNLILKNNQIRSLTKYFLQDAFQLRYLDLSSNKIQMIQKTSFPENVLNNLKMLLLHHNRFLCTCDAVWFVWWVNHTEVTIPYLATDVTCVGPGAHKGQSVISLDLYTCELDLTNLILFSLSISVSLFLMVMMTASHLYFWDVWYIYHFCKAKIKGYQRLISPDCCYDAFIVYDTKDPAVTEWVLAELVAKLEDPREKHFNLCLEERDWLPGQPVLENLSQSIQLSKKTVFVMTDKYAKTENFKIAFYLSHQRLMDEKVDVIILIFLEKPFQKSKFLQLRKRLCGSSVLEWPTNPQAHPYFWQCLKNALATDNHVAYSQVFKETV
Description: Human Peripheral Blood Mononuclear cells (hPBMCs) were collected from healthy adult donors. hPBMCs were cultured in round-bottom 96-well plates (BD Falcon, Durham, NC, USA) with a density of 5 × 10^5 cells/well. Plated cells were pretreated with DMSO or 2.5 μM inhibitors for 3 h and then stimulated by indicated ligands, such as R848 or TLR1/2 specific ligand Pam3CSK4 (Invivogen, HongKong, China), for 20 h in […] of RPMI 1640 medium (Gibco, Paisley, UK) supplemented with 10% FBS, Penicillin-Streptomycin-Glutamine (Gibco, Paisley, UK), 50 μM 2-ME medium at 37 °C in the presence of 5% CO2. Supernatants were collected to measure secreted cytokines by ELISA. Concentration of human IFN-α and TNF-α in the supernatants was measured with Verikine Human IFN-α Multi-Subtype Serum ELISA Kit (PBL Assay Science, Piscataway, NJ, USA) and Human TNF-α Uncoated ELISA (ThermoFisher Scientific, Carlsbad, CA, USA), respectively. This study was approved by the Research Ethics Committee of IMSUT (accession number: 30-100-B20190419).

TLR7 [2] = assay: Glutaraldehyde crosslinking assay of ligand-induced TLR7 dimerization; format: biochemical, Monkey (Macaca mulatta); conditions: for ligand-induced TLR7 dimerization: neutral or acidic pH
Description: The recombinant TLR7 proteins expressed in Drosophila S2 cells (Thermo Fisher Scientific) using Monkey (Macaca mulatta) TLR7 extracellular domain expression construct with N167Q, N399Q, N488Q and N799Q mutations and cleavable Z-loop and C-terminal protein A tag were prepared and were stored in a buffer containing 10 mM Tris-HCl pH 7.5 and 150 mM NaCl at concentrations of 10–15 mg ml^−1. Briefly, the purification steps included IgG affinity purification, the Z-loop and the protein A tag cleavage, and gel-filtration chromatography. Glycan-trimmed TLR7 proteins, expressed in the presence of 1.5 mg l^−1 kifunensine (Glycosyn) and treated by Endo Hf (New England Biolabs) were used for crystallization. Glycan-untrimmed proteins were used in ITC analysis, crosslinking assay, negative-staining EM and cryo-EM (200 kV microscopes) analyses. Glycan-trimmed TLR7 proteins with partially-uncleaved protein A tag were used for cryo-EM analysis using Tatan Krios (Supplementary Fig. 11).
For glutaraldehyde crosslinking assay (Fig. 2b), proteins were buffer exchanged into a buffer containing 10 mM HEPES-NaOH, pH 8.0, 150 mM NaCl and were concentrated to ~13 mg/ml using Amicon Ultra devices (Merck). Protein concentrations were adjusted to 25 µM using buffers containing 10 mM HEPES-NaOH, pH 7.0, 150 mM NaCl (for neutral condition) or 50 mM citrate-NaOH pH 5.0, 150 mM NaCl (for acidic condition). Cpd-3, Cpd-6 or Cpd-7 were added to final concentrations of 100 or 1000 µM. The reactions were started by adding glutaraldehyde (Wako) to a final concentration of 5 mM (for neutral condition) or 20 mM (for acidic condition), incubated at ambient temperature for 25 min and quenched by adding Tris-HCl pH 7.5 to a final concentration of 100 mM. Crosslinked samples were analyzed by non-reducing SDS-PAGE. Quantitative analysis of the SDS-PAGE gel image was performed with Image-J.

[3] = pH 5.0, ligand + (100 or 1000 µM used)
[4] = pH 5.0, ligand ++ (100 or 1000 µM used)
[5] = pH 7.0, ligand + (100 or 1000 µM used)
[6] = pH 7.0, ligand ++ (100 or 1000 µM used)

Structure (SMILES) | R848-induced IFN-α production (TLR7 [1]) | Mean IFN-α (TLR7 [1]; activator None) | IFN-α (TLR7 [1]; activator None) | Mean IFN-α (TLR7 [1]; activator R848 (200 nM)) | IFN-α (TLR7 [1]; activator R848 (200 nM)) | ligand-induced TLR7 dimerization (TLR7 [2]) | Band intensity Dimer (TLR7 [2]; [3]) | Band intensity Monomer (TLR7 [2]; [3]) | Band intensity Dimer (TLR7 [2]; [4]) | Band intensity Monomer (TLR7 [2]; [4]) | Band intensity Dimer (TLR7 [2]; [5]) | Band intensity Monomer (TLR7 [2]; [5]) | Band intensity Dimer (TLR7 [2]; [6]) | Band intensity Monomer (TLR7 [2]; [6])
CCOc1nc(N)c2nc(-c3cncc(F)c3)n(Cc3ccc(CN4C[C@@H]5C[C@H]4CN5C)cc3)c2n1 [Cpd-6] | completely blocked | 0 pg/mL | 0 pg/mL | 0 pg/mL | 0 pg/mL | increased only in acidic conditions | 8170.97 | 16240 | 8032.26 | 12976 | 10536.9 | 14418 | 14285.1 | 11832.4
CCOc1nc(C)c2nc(-c3cncc(F)c3)n(Cc3ccc(CN4C[C@@H]5C[C@H]4CN5C)cc3)c2n1 [Cpd-7] | completely blocked | 0 pg/mL | 0 pg/mL | 0 pg/mL | 0 pg/mL | increased only in acidic conditions | 8301.55 | 16518.6 | 8600.5 | 15510.2 | 9334.79 | 16326.2 | 12602.5 | 14640.4
